Experimental data as given in PubChem BioAssay (NCI).
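All cell lines were grown in 96-well plates and treated with compound for 48 hours. Abbreviation: GI50, concentration required for 50% inhibition of growth. The concentration for full growth arrest is given as TGI.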

How the values were obtained:
Test in all cases: NCI tumour cell line growth inhibition, 48 h
MDA-MB-231 breast = test system: MDA-MB-231 breast
HT29 colon = test system: HT29 colon
SK-MEL-2 melanoma = test system: SK-MEL-2 melanoma
NCI-H522 lung = test system: NCI-H522 lung
NCI-H460 lung = test system: NCI-H460 lung
UACC-257 melanoma = test system: UACC-257 melanoma
OVCAR-4 ovarian = test system: OVCAR-4 ovarian
NCI/ADR-RES ovarian = test system: NCI/ADR-RES ovarian
UACC-62 melanoma = test system: UACC-62 melanoma
NCI-H226 lung = test system: NCI-H226 lung
HCC-2998 colon = test system: HCC-2998 colon
HCT-15 colon = test system: HCT-15 colon
CCRF-CEM leukemia = test system: CCRF-CEM leukemia
U251 CNS = test system: U251 CNS
BT-549 breast = test system: BT-549 breast
UO-31 renal = test system: UO-31 renal
OVCAR-5 ovarian = test system: OVCAR-5 ovarian
HL-60(TB) leukemia = test system: HL-60(TB) leukemia
IGROV1 ovarian = test system: IGROV1 ovarian
786-0 renal = test system: 786-0 renal
RPMI-8226 leukemia = test system: RPMI-8226 leukemia
SF-539 CNS = test system: SF-539 CNS
K-562 leukemia = test system: K-562 leukemia
ACHN renal = test system: ACHN renal
RXF 393 renal = test system: RXF 393 renal
SK-OV-3 ovarian = test system: SK-OV-3 ovarian
SR leukemia = test system: SR leukemia
SF-268 CNS = test system: SF-268 CNS
A549 NSCLC = test system: A549 NSCLC
T-47D breast = test system: T-47D breast
LOX IMVI melanoma = test system: LOX IMVI melanoma
DU-145 prostate = test system: DU-145 prostate
MCF7 breast = test system: MCF7 breast
MDA-MB-435 = test system: MDA-MB-435
MOLT-4 leukemia = test system: MOLT-4 leukemia
SK-MEL-28 melanoma = test system: SK-MEL-28 melanoma
SK-MEL-5 melanoma = test system: SK-MEL-5 melanoma
SNB-75 CNS = test system: SNB-75 CNS
OVCAR-8 ovarian = test system: OVCAR-8 ovarian
A498 renal = test system: A498 renal
HS 578T breast = test system: HS 578T breast
OVCAR-3 ovarian = test system: OVCAR-3 ovarian
HCT-116 colon = test system: HCT-116 colon
NCI-H23 lung = test system: NCI-H23 lung
HOP-92 NSCLC = test system: HOP-92 NSCLC
CAKI-1 renal = test system: CAKI-1 renal
TK-10 renal = test system: TK-10 renal
KM12 colon = test system: KM12 colon
HOP-62 NSCLC = test system: HOP-62 NSCLC
PC-3 prostate = test system: PC-3 prostate
M14 melanoma = test system: M14 melanoma
SN12C renal = test system: SN12C renal
COLO 205 colon = test system: COLO 205 colon
SNB-19 CNS = test system: SNB-19 CNS
SF-295 CNS = test system: SF-295 CNS
EKVX NSCLC = test system: EKVX NSCLC
MALME-3M melanoma = test system: MALME-3M melanoma
SW-620 colon = test system: SW-620 colon

## C(=C1c2ccccc2-c2ccccc21)c1ccccn1
MDA-MB-231 breast
  GI50: 12.3 µM
  TGI: 39.8 µM
HT29 colon
  GI50: 3.56 µM
  TGI: 16.7 µM
SK-MEL-2 melanoma
  GI50: 12.7 µM
  TGI: 43 µM
NCI-H522 lung
  GI50: 11.1 µM
  TGI: 51.1 µM
NCI-H460 lung
  GI50: 5.87 µM
  TGI: 23 µM
UACC-257 melanoma
  GI50: 20.1 µM
  TGI: > 100 µM
OVCAR-4 ovarian
  GI50: 15.3 µM
  TGI: > 100 µM
NCI/ADR-RES ovarian
  GI50: 3.86 µM
  TGI: 31 µM
UACC-62 melanoma
  GI50: 5.8 µM
  TGI: > 100 µM
NCI-H226 lung
  GI50: 14.2 µM
  TGI: > 100 µM
HCC-2998 colon
  GI50: 13 µM
  TGI: 46.3 µM
HCT-15 colon
  GI50: 6.21 µM
  TGI: 49.3 µM
CCRF-CEM leukemia
  GI50: 7.8 µM
  TGI: 46 µM
U251 CNS
  GI50: 6.22 µM
  TGI: 70.9 µM
BT-549 breast
  GI50: 8.85 µM
  TGI: 53.1 µM
UO-31 renal
  GI50: 8.64 µM
  TGI: 38.6 µM
OVCAR-5 ovarian
  GI50: 21.8 µM
  TGI: > 100 µM
HL-60(TB) leukemia
  GI50: 4.52 µM
  TGI: 38.5 µM
IGROV1 ovarian
  GI50: 4.89 µM
  TGI: 35.9 µM
786-0 renal
  GI50: 14.7 µM
  TGI: 29.8 µM
RPMI-8226 leukemia
  GI50: 16.2 µM
  TGI: > 100 µM
SF-539 CNS
  GI50: 11.7 µM
  TGI: 50.2 µM
K-562 leukemia
  GI50: 3.93 µM
  TGI: > 100 µM
ACHN renal
  GI50: 26.6 µM
  TGI: > 100 µM
RXF 393 renal
  GI50: 7.58 µM
  TGI: 24.1 µM
SK-OV-3 ovarian
  GI50: 13.1 µM
  TGI: 64.9 µM
SR leukemia
  GI50: 3.76 µM
  TGI: 38.3 µM
SF-268 CNS
  GI50: 12.4 µM
  TGI: 57.7 µM
A549 NSCLC
  GI50: 7.69 µM
  TGI: 49.5 µM
T-47D breast
  GI50: 5.03 µM
  TGI: 50.9 µM
LOX IMVI melanoma
  GI50: 8.52 µM
  TGI: 25.8 µM
DU-145 prostate
  GI50: 16.1 µM
  TGI: 44.9 µM
MCF7 breast
  GI50: 2.71 µM
  TGI: 21.3 µM
MDA-MB-435
  GI50: 1.72 µM
  TGI: 3.69 µM
MOLT-4 leukemia
  GI50: 11.8 µM
  TGI: > 100 µM
SK-MEL-28 melanoma
  GI50: 8.12 µM
  TGI: 73 µM
SK-MEL-5 melanoma
  GI50: 11.5 µM
  TGI: 26.5 µM
SNB-75 CNS
  GI50: 16 µM
  TGI: > 100 µM
OVCAR-8 ovarian
  GI50: 15.6 µM
  TGI: 77.8 µM
A498 renal
  GI50: 3.51 µM
  TGI: 23.7 µM
HS 578T breast
  GI50: 6.21 µM
  TGI: 28.5 µM
OVCAR-3 ovarian
  GI50: 3.66 µM
  TGI: 15.9 µM
HCT-116 colon
  GI50: 5.07 µM
  TGI: 24.6 µM
NCI-H23 lung
  GI50: 10.3 µM
  TGI: 96.7 µM
HOP-92 NSCLC
  GI50: 7.43 µM
  TGI: 74.5 µM
CAKI-1 renal
  GI50: 3.23 µM
  TGI: 19.6 µM
TK-10 renal
  GI50: 19 µM
  TGI: 57.3 µM
KM12 colon
  GI50: 3.6 µM
  TGI: 14.2 µM
HOP-62 NSCLC
  GI50: 6.61 µM
  TGI: 60.8 µM
PC-3 prostate
  GI50: 22.7 µM
  TGI: > 100 µM
M14 melanoma
  GI50: 4.06 µM
  TGI: 18.2 µM
SN12C renal
  GI50: 12.1 µM
  TGI: > 100 µM
COLO 205 colon
  GI50: 8.56 µM
  TGI: 29.5 µM
SNB-19 CNS
  GI50: 14 µM
  TGI: > 100 µM
SF-295 CNS
  GI50: 1.57 µM
  TGI: 5.97 µM
EKVX NSCLC
  GI50: 5.85 µM
  TGI: 38.3 µM
MALME-3M melanoma
  GI50: 3.61 µM
  TGI: 27 µM
SW-620 colon
  GI50: 4.03 µM
  TGI: 49.4 µM

## CN1C(=O)CNC(=O)[C@H](NC(=O)c2nc3ccccc3cc2O)CSSC[C@H]1C(=O)NCCc1nc2ccccc2cc1O
MDA-MB-231 breast
  GI50: 5.42 µM
  TGI: 27.7 µM
HT29 colon
  GI50: 3.12 µM
  TGI: 16.4 µM
SK-MEL-2 melanoma
  GI50: 2.57 µM
  TGI: 8.47 µM
NCI-H522 lung
  GI50: 2.38 µM
  TGI: 7.46 µM
NCI-H460 lung
  GI50: 1.15 µM
  TGI: > 35.2 µM
UACC-257 melanoma
  GI50: 17.1 µM
  TGI: 72.9 µM
OVCAR-4 ovarian
  GI50: 25 µM
  TGI: > 73.1 µM
NCI/ADR-RES ovarian
  GI50: > 88.5 µM
  TGI: > 100 µM
UACC-62 melanoma
  GI50: 7.64 µM
  TGI: 38.6 µM
NCI-H226 lung
  GI50: 17.3 µM
  TGI: 65.2 µM
HCC-2998 colon
  GI50: 15.7 µM
  TGI: > 75.9 µM
HCT-15 colon
  GI50: 20.7 µM
  TGI: > 62.5 µM
CCRF-CEM leukemia
  GI50: 3.25 µM
  TGI: > 52.7 µM
U251 CNS
  GI50: 16.5 µM
  TGI: 43 µM
BT-549 breast
  GI50: 14.3 µM
  TGI: 51.7 µM
UO-31 renal
  GI50: 13.7 µM
  TGI: 46.1 µM
OVCAR-5 ovarian
  GI50: 24.9 µM
  TGI: 62.1 µM
HL-60(TB) leukemia
  GI50: 1.22 µM
  TGI: 5.1 µM
IGROV1 ovarian
  GI50: 32 µM
  TGI: > 100 µM
786-0 renal
  GI50: 22.1 µM
  TGI: 49 µM
RPMI-8226 leukemia
  GI50: 14.5 µM
  TGI: 62.3 µM
SF-539 CNS
  GI50: 15.2 µM
  TGI: 39.1 µM
K-562 leukemia
  GI50: 1.57 µM
  TGI: 13.9 µM
ACHN renal
  GI50: 15.3 µM
  TGI: 38.7 µM
RXF 393 renal
  GI50: 13.9 µM
  TGI: 36 µM
SK-OV-3 ovarian
  GI50: > 100 µM
  TGI: > 100 µM
SR leukemia
  GI50: 0.387 µM
  TGI: 1.96 µM
SF-268 CNS
  GI50: 4.19 µM
  TGI: 37.9 µM
A549 NSCLC
  GI50: 32.5 µM
  TGI: > 100 µM
T-47D breast
  GI50: 8.09 µM
  TGI: 29.7 µM
LOX IMVI melanoma
  GI50: 0.442 µM
  TGI: 6.77 µM
DU-145 prostate
  GI50: 5.19 µM
  TGI: 23.2 µM
MCF7 breast
  GI50: 6.23 µM
  TGI: 27.4 µM
MDA-MB-435
  GI50: 2.5 µM
  TGI: 35.8 µM
MOLT-4 leukemia
  GI50: 1.4 µM
  TGI: 14.8 µM
SK-MEL-28 melanoma
  GI50: 8.07 µM
  TGI: 35 µM
SK-MEL-5 melanoma
  GI50: 3.05 µM
  TGI: 12.7 µM
SNB-75 CNS
  GI50: 15 µM
  TGI: 33.9 µM
OVCAR-8 ovarian
  GI50: 20.8 µM
  TGI: 53.9 µM
A498 renal
  GI50: > 100 µM
  TGI: > 100 µM
HS 578T breast
  GI50: 21.5 µM
  TGI: 67 µM
OVCAR-3 ovarian
  GI50: 4.61 µM
  TGI: 18.2 µM
HCT-116 colon
  GI50: 2.05 µM
  TGI: 57.6 µM
NCI-H23 lung
  GI50: 13.6 µM
  TGI: 60.9 µM
HOP-92 NSCLC
  GI50: > 100 µM
  TGI: > 100 µM
CAKI-1 renal
  GI50: > 46.6 µM
  TGI: > 78.1 µM
TK-10 renal
  GI50: 20.5 µM
  TGI: 47.3 µM
KM12 colon
  GI50: 0.96 µM
  TGI: 47.7 µM
HOP-62 NSCLC
  GI50: 17.6 µM
  TGI: 53.4 µM
PC-3 prostate
  GI50: 18.9 µM
  TGI: > 70.4 µM
M14 melanoma
  GI50: 1.03 µM
  TGI: 35.4 µM
SN12C renal
  GI50: 22.4 µM
  TGI: > 63.4 µM
COLO 205 colon
  GI50: 2.94 µM
  TGI: 12.7 µM
SNB-19 CNS
  GI50: 33.5 µM
  TGI: > 100 µM
SF-295 CNS
  GI50: 14.3 µM
  TGI: > 100 µM
EKVX NSCLC
  GI50: 11 µM
  TGI: > 61.4 µM
MALME-3M melanoma
  GI50: 15.8 µM
  TGI: 44.1 µM
SW-620 colon
  GI50: 5.65 µM
  TGI: 35.3 µM
